{"source": "patent US20250280827A1", "about": "“An antifungal composition comprising natamycin and at least one insecticide” (priority 2021, published 2025)", "key": {"Fusarium culmorum": {"test_system": "Fusarium culmorum", "assay": "Antifungal effect against Fusarium culmorum on PDA petri dishes (fungal growth area, Colby synergy)", "assay_type": "cell-based", "conditions": "3 days after inoculation, Table 11", "text": "(§1) The Colby equation (Colby, 1967. Weeds 15:20-22) calculates the expected antifungal activity (E in %) of a combination comprising more than one active ingredients:\n(§2) wherein X and Y are the observed antifungal activities (in %) of the individual active ingredients x and y, respectively. If the observed antifungal activity (O in %) of the combination exceeds the expected antifungal activity (E in %) of the combination and the synergy factor O/E is thus >1.0, the combined application of the active ingredients leads to a synergistic antifungal effect.\n(§3) Agar medium was prepared by mixing in a 100 ml Duran bottle 3.9 g of potato dextrose agar (PDA) from Carl-Roth (Carl-Roth GmbH+Co. KG, Karlsruhe, Germany) with 100 ml deionized water and autoclaving the Duran bottle at 120° C. for 15 minutes. After autoclaving, the solution was cooled by putting it in a 48° C. oven for about two hours. Afterward the semi-liquid PDA solution was carefully mixed with natamycin and/or insecticide dosages as specified in Table 5 showing the interaction results on petri dishes. The medium in the Duran bottle was divided over 5 petri dishes (90×15 mm), 20 ml per petri dish by using 25 ml serological pipets (ROTILABO®; Carl-Roth). Each natamycin and/or insecticide treatment was performed in fivefold.\n(§4) Fungal spore suspensions were prepared by drenching a fully grown petri dish with sterile water. The fungus was scraped off and filtered through a Miracloth (pore size: 22-25 μm) (Merck KGaA, Darmstadt, Germany; catalogue number: 475855). The number of spores were counted with a hemocytometer and fungal suspension was adjusted to 10^6 spores per ml. Afterward, 5 μl of prepared spore suspension was pipetted on the center of the agar plate. The plates were incubated at 25° C. Measurement of the fungal growth was done using callipers at different time points. Assessment of the infection area was 6 days after inoculation.\n(§5) The insecticide levels and the period after which the assessments were made are presented as specified for the different insecticides are presented in Table 5 below. Synergistic calculation was done using the Colby equation. Experiment was performed in 5-fold.\nThe experiments were performed as described in Example 3. Assessment of the infection area was 6 days after inoculation. Experiment was performed in 5-fold.\nThe experiments were performed as described in Example 3. The product KARATE ZEON® of company Syngenta containing the active ingredient lambda-cyhalothrin belonging to IRAC Group 3 was tested. Assessment of the infection area was 3 days after inoculation. Experiment was performed in 5-fold."}, "Sclerotinia sclerotiorum": {"test_system": "Sclerotinia sclerotiorum", "assay": "Antifungal effect against Sclerotinia sclerotiorum infection on wounded skin of broad bean pods (rot area, Colby synergy)", "assay_type": "in vivo", "conditions": "30 h after inoculation, Table 3", "text": "as §1, §2\n• 1) Control (without natamycin and lambda-cyhalothrin) • 2) Natamycin at a level of 15 ppm • 3) Lambda-cyhalothrin (in the product KARATE ZEON® of Syngenta) at a levels of 0.15 ppm, 0.6 ppm, 3 ppm and 15 ppm • 4) Natamycin at a level of 15 ppm combined with lambda-cyhalothrin at levels of 0.15 ppm, 0.6 ppm, 3 ppm or 15 ppm.\nUsed pathogen: Sclerotinia sclerotiorum.\n(§6) Application: The broad bean pods were washed under tap water, and were subsequently surface sterilized by placing them in a 0.1% sodium hypochlorite solution for 5 minutes. The pods were then rinsed with tap water and dried. Transparent plastic containers were prepared by placing a piece of absorbing paper in the container and adding 25 ml of water, one container per treatment was used. The pods were cut in two, and two halve pods were incubated per box. The skin of broad bean pods was damaged with a needle, ø 2 mm and to a depth of about 3 mm into the fruit, with—depending on the size of the pod—2 to 4 wounds per half pod. In total, 6 wounds were incubated per treatment, of which 1 was used as a control. A volume of 20 microliter of a natamycin/insecticide composition, as presented herein above, was applied by pipette to each wound. The treatments were then left to air-dry. Once dried, a mycelium plug of Sclerotinia sclerotiorum was placed upside down on each wound, so that the mycelium was in direct contact with the wound. Per treatment 5 wounds were inoculated with the fungus, while the 6th and last wound was used as negative non-inoculated control. After inoculation, the containers were directly closed with a transparent plastic lid.\nAll pods were kept at room temperature (20° C.). Wounds of the pods were checked after 30 h of incubation.\nReplicates: All treatments for the broad bean pod experiment were performed on two individual pod halves resulting in 5 wounds per treatment, while a sixth wound served as control.\nThe experiments were performed as described in Example 1.\nThe experiments were performed as described in Example 1. Assessment of the infection area was 23 h after inoculation. Experiment was performed in 5-fold.\nThe experiments were performed as described in Example 1. Thiamethoxam belongs to IRAC Group 4. Assessment of the infection area was 31 hours after inoculation. Experiment was performed in 5-fold.\nThe experiments were performed as described in Example 1. The product SPECTRE® of company (Adama) containing the active ingredient chlorfenapyr belonging to IRAC Group 13 was tested. Assessment of the infection area was 23 hours after inoculation. Experiment was performed in 5-fold."}, "Botrytis cinerea": {"test_system": "Botrytis cinerea", "assay": "Antifungal effect against Botrytis cinerea infection on wounded peel of banana fruits (Colby synergy)", "assay_type": "in vivo", "conditions": "5 days after inoculation", "text": "as §2, §6\nThe infection area was measured 5 days after inoculation.\nA few changes were made for the banana experiments: 5 wounds per banana were made, on each wound 40 microliter of treatments was pipetted. The treatments were then left to air-dry. Once dried, 2 microliter of a freshly prepared inoculum was pipetted on four of the wounds. The inoculum consists of […] potato dextrose broth (PDB) medium containing Botrytis cinerea spores at a concentration of 10^6 spores per ml. The fifth wound was used as negative non-inoculated control. Experiment was performed in 4-fold.\nAssessment of the infection area was performed 3 days after inoculation. Experiment was performed in 4-fold.\nImidacloprid was formulated as described in Table 2. Assessment of the efficacy was 5 days after inoculation. Experiment was performed in 4-fold."}, "Fusarium graminerum": {"test_system": "Fusarium graminerum", "assay_type": "cell-based", "conditions": "6 days after inoculation, Table 10", "text": "as §1, §2, §3, §4, §5\nThe experiments were performed as described in Example 3. The product KARATE ZEON® of company Syngenta containing the active ingredient lambda-cyhalothrin belonging to IRAC Group 3 was tested. Assessment of the infection area was 6 days after inoculation. Experiment was performed in 5-fold."}, "[1]": {"conditions": "natamycin-insecticide 0-0.05 ppm"}, "[2]": {"conditions": "natamycin-insecticide 0-0.1 ppm"}, "[3]": {"conditions": "natamycin-insecticide 0-0.2 ppm"}, "[4]": {"conditions": "natamycin-insecticide 0-0.5 ppm"}, "[5]": {"conditions": "natamycin-insecticide 0-0.15 ppm"}, "[6]": {"conditions": "natamycin-insecticide 0-0.6 ppm"}, "[7]": {"conditions": "natamycin-insecticide 0:0.004 ppm, Table 12B"}, "[8]": {"conditions": "natamycin-insecticide 0:0.01 ppm, Table 12A"}, "[9]": {"conditions": "natamycin-insecticide 0:0.04 ppm, Table 12A"}, "[10]": {"conditions": "natamycin-insecticide 0:1 ppm, Table 12A"}}, "note": "Where two headings read alike, the source gives them in different places."}
{"smiles": "CC1(C)[C@H](/C=C(\\Cl)C(F)(F)F)[C@@H]1C(=O)O[C@@H](C#N)c1cccc(Oc2ccccc2)c1", "note": "[lambda-cyhalothrin, [(R)-cyano-(3-phenoxyphenyl)methyl] (1S,3S)-3-[(Z)-2-chloro-3,3,3-trifluoroprop-1-enyl]-2,2-dimethylcyclopropane-1-carboxylate]", "values": [{"measurement": "Avg infected area", "setting": "Fusarium culmorum; [1]", "value": 384.0, "unit": "mm2"}, {"measurement": "Observed antifungal activity", "setting": "Fusarium culmorum; [1]", "value": "−5.9", "unit": "%"}, {"measurement": "Avg infected area", "setting": "Fusarium culmorum; [2]", "value": 383.9, "unit": "mm2"}, {"measurement": "Observed antifungal activity", "setting": "Fusarium culmorum; [2]", "value": "−5.8", "unit": "%"}, {"measurement": "Avg infected area", "setting": "Fusarium culmorum; [3]", "value": 370.9, "unit": "mm2"}, {"measurement": "Observed antifungal activity", "setting": "Fusarium culmorum; [3]", "value": "−2.2", "unit": "%"}, {"measurement": "Avg infected area", "setting": "Fusarium culmorum; [4]", "value": 381.7, "unit": "mm2"}, {"measurement": "Observed antifungal activity", "setting": "Fusarium culmorum; [4]", "value": "−5.2", "unit": "%"}, {"measurement": "Avg infected area", "setting": "Sclerotinia sclerotiorum; [5]", "value": 314.73, "unit": "mm^2"}, {"measurement": "Observed antifungal activity", "setting": "Sclerotinia sclerotiorum; [5]", "value": "−0.1", "unit": "%"}, {"measurement": "Avg infected area", "setting": "Sclerotinia sclerotiorum; [6]", "value": 325.88, "unit": "mm^2"}, {"measurement": "Observed antifungal activity", "setting": "Sclerotinia sclerotiorum; [6]", "value": "−3.7", "unit": "%"}, {"measurement": "Avg infected area", "setting": "Sclerotinia sclerotiorum; natamycin-insecticide 0-3 ppm", "value": 350.24, "unit": "mm^2"}, {"measurement": "Observed antifungal activity", "setting": "Sclerotinia sclerotiorum; natamycin-insecticide 0-3 ppm", "value": "−11.4", "unit": "%"}, {"measurement": "Avg infected area", "setting": "Sclerotinia sclerotiorum; natamycin-insecticide 0-15 ppm", "value": 322.41, "unit": "mm^2"}, {"measurement": "Observed antifungal activity", "setting": "Sclerotinia sclerotiorum; natamycin-insecticide 0-15 ppm", "value": "−2.5", "unit": "%"}, {"measurement": "Avg infected area", "setting": "Botrytis cinerea; [7]", "value": 82.4, "unit": "mm2"}, {"measurement": "Observed antifungal activity", "setting": "Botrytis cinerea; [7]", "value": 16.6, "unit": "%"}, {"measurement": "Avg infected area", "setting": "Botrytis cinerea; [8]", "value": 38.9, "unit": "mm2"}, {"measurement": "Observed antifungal activity", "setting": "Botrytis cinerea; [8]", "value": 39.0, "unit": "%"}, {"measurement": "Avg infected area", "setting": "Botrytis cinerea; [9]", "value": 55.1, "unit": "mm2"}, {"measurement": "Observed antifungal activity", "setting": "Botrytis cinerea; [9]", "value": 13.7, "unit": "%"}, {"measurement": "Avg infected area", "setting": "Botrytis cinerea; [10]", "value": 41.8, "unit": "mm2"}, {"measurement": "Observed antifungal activity", "setting": "Botrytis cinerea; [10]", "value": 34.6, "unit": "%"}, {"measurement": "Avg infected area", "setting": "Fusarium graminerum; [2]", "value": 4846.2, "unit": "mm2"}, {"measurement": "Observed antifungal activity", "setting": "Fusarium graminerum; [2]", "value": "−34.1", "unit": "%"}, {"measurement": "Avg infected area", "setting": "Fusarium graminerum; [3]", "value": 5071.1, "unit": "mm2"}, {"measurement": "Observed antifungal activity", "setting": "Fusarium graminerum; [3]", "value": "−40.3", "unit": "%"}, {"measurement": "Avg infected area", "setting": "Fusarium graminerum; [4]", "value": 4842.3, "unit": "mm2"}, {"measurement": "Observed antifungal activity", "setting": "Fusarium graminerum; [4]", "value": "−34", "unit": "%"}, {"measurement": "Avg infected area", "setting": "Fusarium graminerum; natamycin-insecticide 0-1 ppm", "value": 4714.2, "unit": "mm2"}, {"measurement": "Observed antifungal activity", "setting": "Fusarium graminerum; natamycin-insecticide 0-1 ppm", "value": "−30.4", "unit": "%"}]}
